For experiment [1], the target named is Phosphatidylinositol 3-kinase catalytic subunit type 3 (Homo sapiens, UniProt Q8NEB9). As to the kind of experiment: Binding affinity to VPS34 (unknown origin) assessed as dissociation constant by competitive binding assay.
Experiment [2] has as its target CDK8/Cyclin C (Homo sapiens, UniProt P49336). As to the kind of experiment: Inhibition of His tagged human recombinant CDK8/Cyclin C expressed in baculovirus expression system incubated for 15 mins by FRET-based LanthaScreen binding competition assay.

The structures appear in SMILES notation.

CDK8/Cyclin C, sequence (P49336 whole entry): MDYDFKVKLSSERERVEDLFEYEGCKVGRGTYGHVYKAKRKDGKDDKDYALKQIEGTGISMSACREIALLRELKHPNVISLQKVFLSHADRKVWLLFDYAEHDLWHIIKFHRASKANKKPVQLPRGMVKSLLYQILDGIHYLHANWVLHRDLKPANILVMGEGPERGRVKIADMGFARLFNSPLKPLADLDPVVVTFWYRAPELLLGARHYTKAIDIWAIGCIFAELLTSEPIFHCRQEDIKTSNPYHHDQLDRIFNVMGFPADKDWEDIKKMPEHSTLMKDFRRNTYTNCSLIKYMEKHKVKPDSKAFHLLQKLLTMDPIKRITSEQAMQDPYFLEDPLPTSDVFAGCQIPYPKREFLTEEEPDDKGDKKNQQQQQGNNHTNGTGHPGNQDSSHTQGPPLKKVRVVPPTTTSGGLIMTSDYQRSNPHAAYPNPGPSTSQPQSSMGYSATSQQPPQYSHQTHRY
CDK8/Cyclin C, sequence (P24863 whole entry, further chain): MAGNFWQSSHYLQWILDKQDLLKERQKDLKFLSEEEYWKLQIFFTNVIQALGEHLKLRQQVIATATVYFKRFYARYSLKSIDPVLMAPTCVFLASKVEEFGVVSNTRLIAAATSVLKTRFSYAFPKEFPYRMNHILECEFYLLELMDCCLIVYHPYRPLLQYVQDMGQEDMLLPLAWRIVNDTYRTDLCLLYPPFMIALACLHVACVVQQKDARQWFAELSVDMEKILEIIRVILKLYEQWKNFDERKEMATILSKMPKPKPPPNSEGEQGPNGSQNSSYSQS
Phosphatidylinositol 3-kinase catalytic subunit type 3, sequence (Q8NEB9 whole entry): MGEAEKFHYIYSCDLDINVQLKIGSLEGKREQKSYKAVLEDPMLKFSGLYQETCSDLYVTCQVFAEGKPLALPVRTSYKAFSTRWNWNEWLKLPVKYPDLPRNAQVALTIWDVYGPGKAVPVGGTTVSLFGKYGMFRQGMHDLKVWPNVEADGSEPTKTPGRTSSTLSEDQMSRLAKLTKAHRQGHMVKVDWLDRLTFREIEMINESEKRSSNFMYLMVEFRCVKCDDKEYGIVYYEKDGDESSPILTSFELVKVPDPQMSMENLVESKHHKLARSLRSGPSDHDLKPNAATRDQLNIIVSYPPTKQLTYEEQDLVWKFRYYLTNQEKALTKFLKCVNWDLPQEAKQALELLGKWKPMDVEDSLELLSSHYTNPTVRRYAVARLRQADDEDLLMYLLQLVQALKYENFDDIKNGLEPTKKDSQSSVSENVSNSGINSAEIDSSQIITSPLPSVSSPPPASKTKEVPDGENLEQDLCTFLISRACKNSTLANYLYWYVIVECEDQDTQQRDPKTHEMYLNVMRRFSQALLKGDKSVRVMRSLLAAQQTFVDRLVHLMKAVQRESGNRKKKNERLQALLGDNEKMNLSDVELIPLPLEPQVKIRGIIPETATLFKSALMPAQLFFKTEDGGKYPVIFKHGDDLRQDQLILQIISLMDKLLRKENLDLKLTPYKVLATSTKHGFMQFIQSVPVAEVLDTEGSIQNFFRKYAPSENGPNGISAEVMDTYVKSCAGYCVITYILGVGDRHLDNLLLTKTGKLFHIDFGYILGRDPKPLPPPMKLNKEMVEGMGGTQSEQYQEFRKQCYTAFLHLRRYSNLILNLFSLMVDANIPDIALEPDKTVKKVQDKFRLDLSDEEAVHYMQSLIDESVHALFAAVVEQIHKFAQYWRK

As for `Cc1n[nH]c2ccc(-c3nnc(C)n3Cc3ccc(C(F)(F)F)cc3)cc12`, the Kd in experiment [1] came to 4.2 µM. For the same compound, the concentration for half-maximal inhibition (IC50) in experiment [2] turned out to be 0.0007 µM.

These data come from ChEMBL document CHEMBL5380857, “Discovery of Potent, Selective, and Orally Bioavailable Small-Molecule Inhibitors of CDK8 for the Treatment of Cancer” (J Med Chem, 2023).
